What follows are compounds tested against biotinylated Avi-POLθ[2-894] (Homo sapiens (Human), UniProt O75417) (assay: POLθ ATPase assay (ADP-Glo)). Conditions: POLθ ATPase, ADP-Glo; n=2; read-out: Biochemical ATPase ADPGlo IC50.
Description: In some embodiments, the ATPase assay a compound of the present disclosure is combined with biotinylated Avi-POLθ[2-894], a 50 nucleotide poly-thymine repeat single-stranded DNA, and ATP in buffer. In some embodiments, the mixture is incubated and ADP-Glo Reagent added, followed by a subsequent incubation. In some embodiments, a Kinase Detection Reagent may be added, followed by a third incubation. In some embodiments, the activity is measured via luminescence signal (e.g., measured with the EnVision multimode plate reader). POLθ-mediated ATP hydrolysis was measured using the ADP-Glo Kinase Assay (Promega Corporation, Madison, WI). Reactions were performed in white 384-well small-volume microplates (Greiner Bio-One, Frickenhausen, Germany) using a total volume of 15 μL. The ATPase reaction consisted of 1 nM biotinylated Avi-POLθ[2-894], 5 nM of a 50 nucleotide poly-thymine repeat single-stranded DNA (PolyT(50) ssDNA), and 100 μM ATP in 5 μL of assay buffer (50 mM Tris, pH 7.5, 80 mM KCl, 10 MgCl2, 1 mM DTT, 5% glycerol, 0.01% BSA, 0.01% Tween-20). Inhibition of POLΘATPase activity was determined by preparing 11-point serial dilutions of the test compounds in 100% DMSO, then transferring 30 nL of the compounds into the ATPase reaction using an Echo acoustic liquid handler (Beckman Coulter, Brea, CA). DMSO-treated wells containing either all of the reaction components (1 nM biotinylated Avi-POLθ[2-894], 5 nM PolyT(50) ssDNA, 100 μM ATP) or with assay buffer substituted for the biotinylated Avi-POLθ[2-894](0 nM biotinylated Avi-POLθ[2-894], 5 nM PolyT(50) ssDNA, 100 μM ATP) were used to define the maximum and minimum response in the assay. Following a one-hour incubation at ambient temperature, 5 μL of ADP-Glo Reagent was added to the ATPase reaction, and this mixture was allowed to incubate at ambient temperature for an additional hour. Lastly, 5 μL of Kinase Detection Reagent was added, followed by a third one-hour incubation at ambient temperature. […] Luminescence signal was measured using the EnVision multimode plate reader (Perkin Elmer. Waltham. MA). […] Non-linear regression analysis using the four-parameter logistic equation was conducted on the percent activity values of the compound dose-responses, yielding the AC50 value for each compound. Genedata Screener (Genedata. Basel, Switzerland) was used for the data analysis.

Chain of biotinylated Avi-POLθ[2-894] (O75417 2-894): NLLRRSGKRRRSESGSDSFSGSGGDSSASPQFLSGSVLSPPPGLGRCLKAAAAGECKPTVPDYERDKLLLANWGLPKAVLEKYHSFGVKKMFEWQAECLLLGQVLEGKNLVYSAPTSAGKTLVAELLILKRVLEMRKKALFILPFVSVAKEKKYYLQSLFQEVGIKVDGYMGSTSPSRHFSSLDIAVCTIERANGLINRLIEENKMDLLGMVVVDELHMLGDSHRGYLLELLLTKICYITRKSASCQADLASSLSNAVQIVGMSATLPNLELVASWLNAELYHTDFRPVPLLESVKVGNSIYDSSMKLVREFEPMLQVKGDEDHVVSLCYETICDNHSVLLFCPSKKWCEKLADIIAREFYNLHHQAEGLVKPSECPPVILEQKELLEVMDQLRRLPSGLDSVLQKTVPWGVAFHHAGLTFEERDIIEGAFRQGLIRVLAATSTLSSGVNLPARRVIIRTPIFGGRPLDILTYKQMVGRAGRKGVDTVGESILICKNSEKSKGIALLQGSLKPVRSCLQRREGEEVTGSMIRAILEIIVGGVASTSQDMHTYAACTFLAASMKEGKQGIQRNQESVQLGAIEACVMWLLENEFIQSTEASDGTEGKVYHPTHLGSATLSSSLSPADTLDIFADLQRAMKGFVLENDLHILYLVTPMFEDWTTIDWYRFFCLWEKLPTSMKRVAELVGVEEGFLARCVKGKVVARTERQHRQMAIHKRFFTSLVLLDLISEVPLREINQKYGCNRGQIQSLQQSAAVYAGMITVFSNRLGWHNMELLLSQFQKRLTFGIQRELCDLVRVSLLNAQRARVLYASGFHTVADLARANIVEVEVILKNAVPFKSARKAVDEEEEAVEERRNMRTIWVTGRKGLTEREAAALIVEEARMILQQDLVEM

| IC50 [nM] | SMILES |
| --- | --- |
| 1 to 15 | COc1cnc(Cl)cc1-c1cc(C)ncc1C(=O)Nc1nc2c(s1)CN(C(=O)c1ccc(Cl)c(C(F)F)c1)C2 |
| 1 to 15 | COc1ccc(C#N)cc1-c1cc(C)ncc1C(=O)Nc1nc2c(s1)CN(C(=O)c1ccc(F)c(C(F)F)c1)C2 |
| 1 to 15 | COc1cnc(Cl)cc1-c1cc(C)ncc1C(=O)Nc1nc2c(s1)CN(C(=O)c1cccc3cncn13)C2 |
| 1 to 15 | COc1cnc(C(=O)N2Cc3nc(NC(=O)c4cnc(C)cc4-c4cc(Cl)ncc4OC)sc3C2)nc1 |
| 1 to 15 | COc1cnc(Cl)cc1-c1cc(C)ncc1C(=O)Nc1nc2c(s1)CN(C(=O)c1nccs1)C2 |
| 1 to 15 | COc1ccc(C#N)cc1-c1cc(C)ncc1C(=O)Nc1nc2c(s1)CN(C(=O)c1ccc(Cl)c(C(F)F)c1)C2 |
| 1 to 15 | COc1cnc(Cl)cc1-c1cc(C)ncc1C(=O)Nc1nc2c(s1)CN(C(=O)c1ccncn1)C2 |
| 1 to 15 | COc1cnc(Cl)cc1-c1cc(C)ncc1C(=O)Nc1nc2c(s1)CN(C(=O)c1cccc(OC(F)(F)F)n1)C2 |
| 1 to 15 | COc1cnc(Cl)cc1-c1cc(C)ncc1C(=O)Nc1nc2c(s1)CN(C(=O)c1cncc(C(F)(F)F)n1)C2 |
| 1 to 15 | COc1cnc(Cl)cc1-c1cc(C)ncc1C(=O)Nc1nc2c(s1)CN(C(=O)c1cnc(OC(F)F)cn1)C2 |
| 1 to 15 | COc1cnc(Cl)cc1-c1cc(C)ncc1C(=O)Nc1nc2c(s1)CN(C(=O)c1ncncc1Cl)C2 |
| 1 to 15 | COc1cc(Cl)c(C(=O)N2Cc3nc(NC(=O)c4cnc(C)cc4-c4cc(Cl)ncc4OC)sc3C2)nn1 |
| 1 to 15 | COc1cnc(Cl)cc1-c1cc(C)ncc1C(=O)Nc1nc2c(s1)CN(C(=O)c1cncc(C)n1)C2 |
| 1 to 15 | COc1cnc(Cl)cc1-c1cc(C)ncc1C(=O)Nc1nc2c(s1)CN(C(=O)c1nc(C(F)(F)F)co1)C2 |
| 1 to 15 | COc1cnc(Cl)cc1-c1cc(C)ncc1C(=O)Nc1nc2c(s1)CN(C(=O)c1ncc(C)nc1C)C2 |
| 1 to 15 | COc1cnc(Cl)cc1-c1cc(C)ncc1C(=O)Nc1nc2c(s1)CN(C(=O)c1ncc(C)n1C)C2 |
| 15 to 50 | COc1cnnc(C(=O)N2Cc3nc(NC(=O)c4cnc(C)cc4-c4cc(Cl)ncc4OC)sc3C2)c1 |
| 150 to 900 | COc1cnc(Cl)cc1-c1cc(C)ncc1C(=O)Nc1nc2c(s1)CN(C(=O)C1CCCC(OC(F)F)C1)C2 (stereo not drawn) |
| 50 to 150 | COc1cnc(Cl)cc1-c1cc(C)ncc1C(=O)Nc1nc2c(s1)C[C@H](C(=O)N1CC(O)C1)CC2 |
| 150 to 900 | COc1cnc(Cl)cc1-c1cc(C)ncc1C(=O)Nc1nc2c(s1)C[C@@H](C(=O)N[C@H]1CC[C@H]1O)CC2 |
| 150 to 900 | COc1cnc(Cl)cc1-c1cc(C)ncc1C(=O)Nc1nc2c(s1)C[C@H](C(=O)N[C@H]1CC[C@H]1O)CC2 |
| 150 to 900 | COc1cnc(Cl)cc1-c1cc(C)ncc1C(=O)Nc1nc2c(s1)C[C@@H](C(=O)N[C@H]1CC[C@@H]1O)CC2 |
| 150 to 900 | COc1cnc(Cl)cc1-c1cc(C)ncc1C(=O)Nc1nc2c(s1)C[C@H](C(=O)N[C@H]1CC[C@@H]1O)CC2 |
| 150 to 900 | COc1cnc(Cl)cc1-c1cc(C)ncc1C(=O)Nc1nc2c(s1)C[C@H](C(=O)N[C@@H]1CC[C@@H]1O)CC2 |

Same assay, conditions: n=2; read-out: Biochemical ATPase ADPGlo IC50

| IC50 [nM] | SMILES |
| --- | --- |
| 1 to 15 | CCn1nccc1C(=O)N1Cc2nc(NC(=O)c3cnc(C)cc3-c3cc(Cl)ncc3OC)sc2C1 |
| 1 to 15 | COc1cnc(Cl)cc1-c1cc(C)ncc1C(=O)Nc1nc2c(s1)CN(C(=O)N1CC(OC(F)F)C1)C2 |
| 15 to 50 | COc1cnc(Cl)cc1-c1cc(C)ncc1C(=O)Nc1nc2c(s1)CN(C(=O)[C@H]1CCOC1)C2 |
| 1 to 15 | COc1ccc(C#N)cc1-c1cc(C)ncc1C(=O)Nc1nc2c(s1)CN(S(=O)(=O)N1CCC1)C2 |
| 15 to 50 | COc1ccc(C#N)cc1-c1cc(C)ncc1C(=O)Nc1nc2c(s1)CN(C(=O)[C@@H]1CC[C@@H]1C)C2 |
| 1 to 15 | COc1ccc(C#N)cc1-c1cc(C)ncc1C(=O)Nc1nc2c(s1)CN(C(=O)[C@@H]1CC[C@H]1C)C2 |
| 50 to 150 | COc1ccc(C#N)cc1-c1cc(C)ncc1C(=O)Nc1nc2c(s1)CN(S(=O)(=O)N1CCCC1)CC2 |
| 150 to 900 | COc1ccc(C#N)cc1-c1cc(C)ncc1C(=O)Nc1nc2c(s1)CN(C(=O)c1cccnc1)CC2 |
| 1 to 15 | COc1ccc(C#N)cc1-c1cc(C)ncc1C(=O)Nc1nc2c(s1)CN(S(=O)(=O)c1ccc(C)cn1)C2 |
| 15 to 50 | COc1ccc(C#N)cc1-c1cc(C)ncc1C(=O)Nc1nc2c(s1)CN(S(=O)(=O)C1CCOC1)C2 (stereo not drawn) |
| 150 to 900 | COc1ccc(C#N)cc1-c1cc(C)ncc1C(=O)Nc1nc2c(s1)CN(S(=O)(=O)C1CCCC1)CC2 |
| 50 to 150 | CCNS(=O)(=O)N1CCc2nc(NC(=O)c3cnc(C)cc3-c3cc(C#N)ccc3OC)sc2C1 |
| 50 to 150 | COc1ccccc1-c1cc(C)ncc1C(=O)Nc1nc2c(s1)CN(C(=O)c1ncon1)C2 |
| 15 to 50 | COc1ccc(C#N)cc1-c1cc(C)ncc1C(=O)Nc1nc2c(s1)CN(S(=O)(=O)C1(C)CC1)C2 |
| 1 to 15 | COc1ccc(C#N)cc1-c1cc(C)ncc1C(=O)Nc1nc2c(s1)CN(C(=O)C1CCC1)C2 |
| 50 to 150 | COc1ccc(C#N)cc1-c1cc(C)ncc1C(=O)Nc1nc2c(s1)CN(S(=O)(=O)C1CCC1)C2 |
| 15 to 50 | COc1ccccc1-c1cc(C)ncc1C(=O)Nc1nc2c(s1)CN(S(=O)(=O)C1CCC1)C2 |
| 50 to 150 | COc1ccc(C#N)cc1-c1cc(C)ncc1C(=O)Nc1nc2c(s1)CN(S(=O)(=O)c1cccnc1)C2 |
| 150 to 900 | COc1ccccc1-c1cc(C)ncc1C(=O)Nc1nc2c(s1)CN(C(=O)c1cocn1)C2 |
| ≥ 900 | COc1ccccc1-c1cc(C)ncc1C(=O)Nc1nc2c(s1)CN(C(=O)Cn1cccn1)C2 |
| 50 to 150 | COc1ccccc1-c1cc(C)ncc1C(=O)Nc1nc2c(s1)CN(C(=O)c1ncco1)C2 |
| 150 to 900 | COc1ccccc1-c1cc(C)ncc1C(=O)Nc1nc2c(s1)CN(C(=O)c1cnco1)C2 |
| ≥ 900 | COc1ccccc1-c1cc(C)ncc1C(=O)Nc1nc2c(s1)CN(c1nccs1)C2 |
| 50 to 150 | COc1ccccc1-c1cc(C)ncc1C(=O)Nc1nc2c(s1)CN(S(=O)(=O)NCC(C)C)C2 |

| IC50 [nM] | SMILES |
| --- | --- |
| 50 to 150 | COc1ccc(C#N)cc1-c1cc(C)ncc1C(=O)Nc1nc2c(s1)CN(S(=O)(=O)C1CCOCC1)C2 |
| 15 to 50 | CCNS(=O)(=O)N1Cc2nc(NC(=O)c3cnc(C)cc3-c3ccccc3OC)sc2C1 |
| 15 to 50 | COc1ccccc1-c1cc(C)ncc1C(=O)Nc1nc2c(s1)CN(S(=O)(=O)N1CCOCC1)C2 |
| 50 to 150 | COc1ccccc1-c1cc(C)ncc1C(=O)Nc1nc2c(s1)CN(S(=O)(=O)N1CCCC1)C2 |
| 50 to 150 | COc1ccccc1-c1cc(C)ncc1C(=O)Nc1nc2c(s1)CC(Nc1ccccc1)CC2 (stereo not drawn) [listing 1 of 3 here] |
| 50 to 150 | CNS(=O)(=O)N1Cc2nc(NC(=O)c3cnc(C)cc3-c3ccccc3OC)sc2C1 |
| 50 to 150 | COc1ccccc1-c1cc(C)ncc1C(=O)Nc1nc2c(s1)CN(C(=O)C1CCC1)C2 |
| 50 to 150 | COc1ccccc1-c1cc(C)ncc1C(=O)Nc1nc2c(s1)CC(Nc1ccccc1)CC2 (stereo not drawn) [listing 2 of 3 here] |
| 50 to 150 | COc1ccccc1-c1cc(C)ncc1C(=O)Nc1nc2c(s1)CC(c1ccc(Cl)cc1)CC2 (stereo not drawn) [listing 1 of 2 here] |
| 150 to 900 | COc1ccccc1-c1cc(C)ncc1C(=O)Nc1nc2c(s1)CN(S(=O)(=O)N(C)C)C2 |
| 150 to 900 | COC(=O)N1Cc2nc(NC(=O)c3cnc(C)cc3-c3ccccc3OC)sc2C1 |
| 150 to 900 | COc1ccccc1-c1cc(C)ncc1C(=O)Nc1nc2c(s1)CC(c1ccc(Cl)cc1)CC2 (stereo not drawn) [listing 2 of 2 here] |
| ≥ 900 | COc1ccccc1-c1cc(C)ncc1C(=O)Nc1nc2c(s1)CN(C(=O)N(C)C)C2 |
| ≥ 900 | COc1ccccc1-c1cc(C)ncc1C(=O)Nc1nc2c(s1)CC(Oc1ccccc1)CC2 (stereo not drawn) |
| ≥ 900 | COc1ccccc1-c1cc(C)ncc1C(=O)Nc1nc2c(s1)CN(C(=O)C1(C#N)CC1)C2 |
| ≥ 900 | COc1ccccc1-c1cc(C)ncc1C(=O)Nc1nc2c(s1)C(=O)N(C1CC1)C2 |
| ≥ 900 | COc1ccccc1-c1cc(C)ncc1C(=O)Nc1nc2c(s1)CCCC2 |
| ≥ 900 | COc1ccccc1-c1cc(C)ncc1C(=O)Nc1nc2c(s1)CN(C(=O)C1CCCCC1)CC2 |
| ≥ 900 | COc1ccccc1-c1cc(C)ncc1C(=O)Nc1nc2c(s1)CC(Nc1ccccc1)CC2 (stereo not drawn) [listing 3 of 3 here] |
| ≥ 900 | COc1ccccc1-c1cc(C)ncc1C(=O)Nc1nc2c(s1)CNC2 |
| ≥ 900 | CNC(=O)N1Cc2nc(NC(=O)c3cnc(C)cc3-c3ccccc3OC)sc2C1 |
| ≥ 900 | COc1ccccc1-c1cc(C)ncc1C(=O)Nc1nc2c(s1)CN(C1CCCCC1)CC2 |
| ≥ 900 | COc1ccccc1-c1cc(C)ncc1C(=O)Nc1nc2c(s1)COCC2 |
| ≥ 900 | COc1ccccc1-c1cc(C)ncc1C(=O)Nc1nc2c(s1)CCN(C(=O)OC(C)(C)C)C2 |

— patent publication US20250230171A1 (MOMA Therapeutics, Inc., priority 2023, published 2025)
